The values below come from ChEMBL document CHEMBL4627357, “An osteoinductive effect of phytol on mouse mesenchymal stem cells (C3H10T1/2) towards osteoblasts” (Bioorg Med Chem Lett, 2020).

Calls of active or inactive are those of the source. The rule behind the calls is not given here.

Data set [1] deals with C3H 10T1/2. The experiment in a line: Cytotoxicity against mouse C3H10T1/2 cells assessed as spindle shaped and flattened appearance at 40 uM measured after 72 hrs by FDA staining based assay. The note with it: c3h 10t1/2, 72 h. Type of data set: cell-based.
The test system of data set [2] is C3H 10T1/2. The experiment in a line: Induction of osteoblast differentiation in mouse C3H10T1/2 cells assessed as increase in Runx2 mRNA expression at 40 uM measured after 3 to 7 days by RT-qPCR analysis. The data set is classed as functional, cell-based. (Real-time PCR tracks product formation cycle by cycle.)
In data set [3] the test system is C3H 10T1/2. As to the kind of experiment: Induction of osteoblast differentiation in mouse C3H10T1/2 cells assessed as downregulation of Smad7 protein expression at 40 uM measured after 7 days by Western blot analysis. Type of data set: functional, cell-based.
Data set [4] concerns C3H 10T1/2. As to the kind of experiment: Induction of osteoblast differentiation in mouse C3H10T1/2 cells assessed as increase in ALP mRNA expression at 40 uM measured after 3 days by RT-qPCR analysis. The data set is classed as functional, cell-based.
For data set [5], the system named is C3H 10T1/2. The experiment in a line: Induction of osteoblast differentiation in mouse C3H10T1/2 cells assessed as increase in calcium deposition at 40 uM measured after 14 days by alizarin red staining based assay. The data set is classed as functional, cell-based.
Data set [6] concerns C3H 10T1/2. As to the kind of experiment: Cytotoxicity against mouse C3H10T1/2 cells assessed as dead cells at 40 uM measured after 72 hrs by MUSE cell analyzer (reference value: 4.2%). The settings on record: c3h 10t1/2, 72 h. Type of data set: cell-based.
In data set [7] the test system is C3H 10T1/2. As to the kind of experiment: Induction of osteoblast differentiation in mouse C3H10T1/2 cells assessed as increase in type-1 collagen mRNA expression at 40 uM measured after 3 days by RT-qPCR analysis. Type of data set: functional, cell-based.
The test system of data set [8] is C3H 10T1/2. The experiment in a line: Induction of osteoblast differentiation in mouse C3H10T1/2 cells assessed as increase in type-1 collagen mRNA expression at 40 uM measured after 7 days by RT-qPCR analysis. Type of data set: functional, cell-based.
Data set [9] deals with C3H 10T1/2. As to the kind of experiment: Upregulation of Runx2 mRNA expression in mouse C3H10T1/2 at 40 uM measured after 72 hrs by SYBR green based RT-qPCR analysis. Type of data set: functional, cell-based.
The test system of data set [10] is C3H 10T1/2. The experiment in a line: Induction of osteoblast differentiation in mouse C3H10T1/2 cells assessed as increase in ALP mRNA expression at 40 uM measured after 7 days by RT-qPCR analysis. Type of data set: functional, cell-based.
Data set [11] concerns C3H 10T1/2. The experiment in a line: Induction of osteoblast differentiation in mouse C3H10T1/2 cells assessed as upregulation of miRNA-21a mRNA expression at 40 uM measured after 7 days by RT-qPCR analysis. Type of data set: functional, cell-based.
In data set [12] the test system is C3H 10T1/2. As to the kind of experiment: Induction of osteoblast differentiation in mouse C3H10T1/2 cells assessed as upregulation in Runx2 protein expression at 40 uM measured after 7 days by Western blot analysis. The data set is classed as functional, cell-based. On the technique in general: In western blotting, separated proteins are transferred to a membrane and probed.

The test system of data set [13] is C3H 10T1/2. As to the kind of experiment: Induction of osteoblast differentiation in mouse C3H10T1/2 cells assessed as increase in osterix mRNA expression at 40 uM measured after 3 to 7 days by RT-qPCR analysis. Type of data set: functional, cell-based.
The subject of data set [14] is C3H 10T1/2. The experiment in a line: Induction of osteoblast differentiation in mouse C3H10T1/2 cells assessed as formation of mineralized nodule at 40 uM measured after 14 days by von-Kossa staining based assay. The data set is classed as functional, cell-based.
Data set [15] can be described thus: Cytotoxicity against mouse C3H10T1/2 cells assessed as live cells at 40 uM measured after 72 hrs by MUSE cell analyzer (reference value: 95.8%). Type of data set: cell-based, C3H 10T1/2. The settings on record: read-out: Activity.
The test system of data set [16] is C3H 10T1/2. As to the kind of experiment: Induction of osteoblast differentiation in mouse C3H10T1/2 cells assessed as increase in osteocalcin mRNA expression at 40 uM measured after 3 to 7 days by RT-qPCR analysis. The data set is classed as functional, cell-based.

As to `C/C(=C\CO)CCC[C@H](C)CCC[C@H](C)CCCC(C)C` [TRANS-PHYTOL], the Activity result with C3H 10T1/2 [1] is “Non-Toxic”; with C3H 10T1/2 [6] it was 4%. For the same compound, the result with C3H 10T1/2 [2], in the data set on C3H 10T1/2 [3], in the data set on C3H 10T1/2 [5], in the data set on C3H 10T1/2 [8], in the data set with C3H 10T1/2 [9] and in the data set with C3H 10T1/2 [10] was Active. For the same compound, the outcome in the data set on C3H 10T1/2 [11], with C3H 10T1/2 [12] and with C3H 10T1/2 [14] was Active. In addition, the outcome in the data set with C3H 10T1/2 [4], in the data set with C3H 10T1/2 [7], in the data set with C3H 10T1/2 [13] and in the data set with C3H 10T1/2 [16] was inactive. The viability at 72 h, 40 µM in data set [15] came out at 96%.
